In brackets after ≈: the same amount, converted by molar mass. Activity calls are given as the source filed them. The rule behind the calls is not given here.
Assays:
HeLa [1] = test: Cytotoxicity against human HeLa cells assessed as reduction in cell number after 72 hrs by cell counting assay; type: functional, cell-based
CCRF-CEM = test: Cytotoxicity against human CCRF-CEM cells assessed as reduction in cell number after 72 hrs by cell counting assay; type: functional, cell-based
L1210 [2] = test: Cytotoxicity against mouse L1210 cells assessed as reduction in cell number after 48 hrs by cell counting assay; type: functional, cell-based; conditions: L1210, 48 h
Bacillus spizizenii [3] = test: Antibacterial activity against Bacillus subtilis ATCC 6633 assessed as growth inhibition at 100 uM after 16 to 20 hrs by microbroth dilution method; type: functional
[4] = target: Leukocyte tyrosine kinase receptor (Homo sapiens) (UniProt P29376); test: Inhibition of LTK (unknown origin) at 5 uM
Escherichia coli [5] = test: Antibacterial activity against Escherichia coli ATCC 25922 assessed as growth inhibition at 100 uM after 16 to 20 hrs by microbroth dilution method; type: functional, organism-based
[6] = target: Tyrosine-protein kinase JAK2 (Homo sapiens) (UniProt O60674); test: Inhibition of JAK2 JH1/JH2 domain (unknown origin) at 5 uM
[7] = target: Tyrosine-protein kinase JAK1 (Homo sapiens) (UniProt P23458); test: Inhibition of JAK1 (unknown origin) at 5 uM
[8] = target: Phosphatidylinositol 4,5-bisphosphate 3-kinase catalytic subunit gamma isoform (Homo sapiens) (UniProt P48736); test: Inhibition of PIK3CG (unknown origin) at 5 uM
[9] = target: Serine/threonine-protein kinase D3 (Homo sapiens) (UniProt O94806); test: Inhibition of PRKCN (unknown origin) at 5 uM
[10] = target: PI3-kinase p110-delta/p85-alpha (Homo sapiens) (UniProt P27986+O00329); test: Inhibition of PIK3CD/PIK3R1 (unknown origin) at 5 uM; type: protein-complex assay
[11] = target: PI3-kinase p110-alpha/p85-alpha (Homo sapiens) (UniProt P27986+P42336); test: Inhibition of PIK3CA/PIK3R1 (unknown origin) at 5 uM; type: protein-complex assay
[12] = target: Serine/threonine-protein kinase D2 (Homo sapiens) (UniProt Q9BZL6); test: Inhibition of PRKD2 (unknown origin) at 5 uM
[13] = target: Non-receptor tyrosine-protein kinase TYK2 (Homo sapiens) (UniProt P29597); test: Inhibition of TYK2 (unknown origin) at 5 uM
Vero = test: Cytotoxicity against African green monkey Vero cells assessed as reduction in cell number; type: cell-based; conditions: chlorocebus sabaeus
[14] = target: Phosphatidylinositol 4-phosphate 3-kinase C2 domain-containing subunit alpha (Homo sapiens) (UniProt O00443); test: Inhibition of PIK3C2A (unknown origin) at 5 uM
[15] = target: Phosphatidylinositol 4-phosphate 3-kinase C2 domain-containing subunit beta (Homo sapiens) (UniProt O00750); test: Inhibition of PIK3C2B (unknown origin) at 5 uM
Enterococcus faecalis [16] = test: Antibacterial activity against vancomycin-resistant Enterococcus faecalis ATCC 51299 assessed as growth inhibition at 100 uM after 16 to 20 hrs by microbroth dilution method; type: functional, organism-based
[17] = target: Proto-oncogene tyrosine-protein kinase Src (Homo sapiens) (UniProt P12931); test: Inhibition of SRC (unknown origin) at 5 uM
L1210 [18] = test: Cytotoxicity against mouse L1210 cells assessed as reduction in cell viability after 48 hrs by MTT assay; type: functional, cell-based; conditions: L1210, 48 h
HeLa [19] = test: Cytotoxicity against human HeLa cells assessed as reduction in cell number; type: functional
[20] = target: Serine/threonine-protein kinase D1 (Homo sapiens) (UniProt Q15139); test: Inhibition of PRKD1 (unknown origin) at 5 uM
L1210 [21] = test: Induction of apoptosis in mouse L1210 cells assessed as early apoptotic cells level at 1 uM after 48 hrs by Annexin-V/7-AAD staining-based flow cytometric analysis (reference value: 2.59%); type: functional
[22] = target: Hepatocyte growth factor receptor (Homo sapiens) (UniProt P08581); test: Inhibition of MET (unknown origin) at 5 uM
HEL = test: Cytotoxicity against human HEL cells assessed as reduction in cell number by cell counting assay; type: functional
[23] = target: Serine/threonine-protein kinase mTOR (Homo sapiens) (UniProt P42345); test: Inhibition of FRAP1 (unknown origin) at 5 uM
[24] = target: Phosphatidylinositol 3-kinase catalytic subunit type 3 (Homo sapiens) (UniProt Q8NEB9); test: Inhibition of PIK3C3 (unknown origin) at 5 uM
Pseudomonas aeruginosa [25] = test: Antibacterial activity against Pseudomonas aeruginosa ATCC 27853 assessed as growth inhibition at 100 uM after 16 to 20 hrs by microbroth dilution method; type: functional, organism-based
[26] = target: Proto-oncogene tyrosine-protein kinase Src (Homo sapiens) (UniProt P12931); test: Inhibition of SRC N1 (unknown origin) at 5 uM
[27] = target: Tyrosine-protein kinase JAK3 (Homo sapiens) (UniProt P52333); test: Inhibition of JAK3 (unknown origin) at 5 uM
Cryptococcus neoformans [28] = test: Antifungal activity against Cryptococcus neoformans B4546 assessed as growth inhibition after 48 hrs by microbroth dilution method; type: functional; conditions: B4546, 48 h
Staphylococcus aureus [29] = test: Antibacterial activity against methicillin-resistant Staphylococcus aureus subsp. aureus ATCC 43300 assessed as growth inhibition at 100 uM after 16 to 20 hrs by microbroth dilution method; type: functional, organism-based
[30] = target: Tyrosine-protein kinase JAK2 (Homo sapiens) (UniProt O60674); test: Inhibition of JAK2 (unknown origin) at 5 uM
[31] = test system: Tyrosine-protein kinase JAK2 (Homo sapiens), O60674 [V617F]; test: Inhibition of JAK2 JH1/JH2 domain V617F mutant (unknown origin) at 5 uM
L1210 [32] = test: Induction of apoptosis in mouse L1210 cells assessed as viable cells level at 1 uM after 48 hrs by Annexin-V/7-AAD staining-based flow cytometric analysis (reference value: 92.5%); type: functional
L1210 [33] = test: Cell cycle arrest in mouse L1210 cells at 0.32 uM after 24 to 48 hrs by propidium iodide staining-based flow cytometric analysis; type: functional
Candida albicans [34] = test: Antifungal activity against Candida albicans ATCC 10231 assessed as growth inhibition after 16 to 20 hrs by microbroth dilution method; type: functional
Cryptococcus neoformans [35] = test: Antifungal activity against Cryptococcus neoformans JEC20 assessed as growth inhibition after 48 hrs by microbroth dilution method; type: functional; conditions: JEC20, 48 h
L1210 [36] = test: Induction of apoptosis in mouse L1210 cells assessed as necrotic cells level at 1 uM after 48 hrs by Annexin-V/7-AAD staining-based flow cytometric analysis (reference value: 3.68%); type: functional
L1210 [37] = test: Induction of apoptosis in mouse L1210 cells assessed as late cells level at 1 uM after 48 hrs by Annexin-V/7-AAD staining-based flow cytometric analysis (reference value: 1.25%); type: functional
Cryptococcus neoformans [38] = test: Antifungal activity against Cryptococcus neoformans JEC20 assessed as growth inhibition at 100 uM after 48 hrs by microbroth dilution method; type: functional
Cryptococcus neoformans [39] = test: Antifungal activity against Cryptococcus neoformans B4546 assessed as growth inhibition at 100 uM after 48 hrs by microbroth dilution method; type: functional
Cryptococcus neoformans [40] = test: Antifungal activity against Cryptococcus neoformans ATCC 66031 assessed as growth inhibition at 100 uM after 48 hrs by microbroth dilution method; type: functional
Cryptococcus neoformans [41] = test: Antifungal activity against Cryptococcus neoformans VANC-R265 assessed as growth inhibition at 100 uM after 48 hrs by microbroth dilution method; type: functional
Candida albicans [42] = test: Antifungal activity against Candida albicans ATCC 10231 assessed as growth inhibition at 100 uM after 16 to 20 hrs by microbroth dilution method; type: functional
Staphylococcus aureus [43] = test: Antibacterial activity against methicillin-resistant Staphylococcus aureus subsp. aureus ATCC 43300 assessed as growth inhibition after 16 to 20 hrs by microbroth dilution method; type: functional
Escherichia coli [44] = test: Antibacterial activity against Escherichia coli ATCC 25922 assessed as growth inhibition after 16 to 20 hrs by microbroth dilution method; type: functional
Enterococcus faecalis [45] = test: Antibacterial activity against vancomycin-resistant Enterococcus faecalis ATCC 51299 assessed as growth inhibition after 16 to 20 hrs by microbroth dilution method; type: functional
Bacillus spizizenii [46] = test: Antibacterial activity against Bacillus subtilis ATCC 6633 assessed as growth inhibition after 16 to 20 hrs by microbroth dilution method; type: functional
Pseudomonas aeruginosa [47] = test: Antibacterial activity against Pseudomonas aeruginosa ATCC 27853 assessed as growth inhibition after 16 to 20 hrs by microbroth dilution method; type: functional

Tyrosine-protein kinase JAK2 (Homo sapiens), sequence (O60674 whole entry, the tested form may be a part): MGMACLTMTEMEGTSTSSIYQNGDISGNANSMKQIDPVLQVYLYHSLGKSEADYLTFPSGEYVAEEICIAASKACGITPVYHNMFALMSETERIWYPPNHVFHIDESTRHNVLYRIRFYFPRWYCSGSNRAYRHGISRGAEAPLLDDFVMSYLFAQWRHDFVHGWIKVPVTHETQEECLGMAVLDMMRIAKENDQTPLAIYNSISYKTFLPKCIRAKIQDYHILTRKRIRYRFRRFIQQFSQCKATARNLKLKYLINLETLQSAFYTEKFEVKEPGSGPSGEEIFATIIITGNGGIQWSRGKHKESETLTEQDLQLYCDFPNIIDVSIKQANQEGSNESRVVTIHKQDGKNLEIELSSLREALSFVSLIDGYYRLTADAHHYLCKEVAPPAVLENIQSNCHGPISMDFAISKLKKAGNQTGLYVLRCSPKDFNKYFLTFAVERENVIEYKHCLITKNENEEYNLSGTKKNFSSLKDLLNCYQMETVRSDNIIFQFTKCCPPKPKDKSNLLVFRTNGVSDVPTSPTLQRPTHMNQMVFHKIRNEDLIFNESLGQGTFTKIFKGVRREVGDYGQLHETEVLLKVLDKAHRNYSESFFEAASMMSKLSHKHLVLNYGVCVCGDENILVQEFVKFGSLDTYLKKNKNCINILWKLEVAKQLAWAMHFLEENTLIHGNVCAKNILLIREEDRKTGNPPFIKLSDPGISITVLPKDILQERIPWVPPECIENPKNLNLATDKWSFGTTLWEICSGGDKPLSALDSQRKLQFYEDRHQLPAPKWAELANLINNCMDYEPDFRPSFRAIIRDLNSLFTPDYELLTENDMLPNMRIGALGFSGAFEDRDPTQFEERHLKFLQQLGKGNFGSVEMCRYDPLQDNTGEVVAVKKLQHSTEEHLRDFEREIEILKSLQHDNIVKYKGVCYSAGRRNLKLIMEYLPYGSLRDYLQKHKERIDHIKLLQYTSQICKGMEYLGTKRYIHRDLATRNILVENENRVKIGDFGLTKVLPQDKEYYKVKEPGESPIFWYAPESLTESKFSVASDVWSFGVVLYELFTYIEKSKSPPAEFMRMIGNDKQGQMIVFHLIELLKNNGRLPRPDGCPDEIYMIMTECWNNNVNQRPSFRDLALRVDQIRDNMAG
Proto-oncogene tyrosine-protein kinase Src (Homo sapiens), sequence (P12931 2-536 limits assumed): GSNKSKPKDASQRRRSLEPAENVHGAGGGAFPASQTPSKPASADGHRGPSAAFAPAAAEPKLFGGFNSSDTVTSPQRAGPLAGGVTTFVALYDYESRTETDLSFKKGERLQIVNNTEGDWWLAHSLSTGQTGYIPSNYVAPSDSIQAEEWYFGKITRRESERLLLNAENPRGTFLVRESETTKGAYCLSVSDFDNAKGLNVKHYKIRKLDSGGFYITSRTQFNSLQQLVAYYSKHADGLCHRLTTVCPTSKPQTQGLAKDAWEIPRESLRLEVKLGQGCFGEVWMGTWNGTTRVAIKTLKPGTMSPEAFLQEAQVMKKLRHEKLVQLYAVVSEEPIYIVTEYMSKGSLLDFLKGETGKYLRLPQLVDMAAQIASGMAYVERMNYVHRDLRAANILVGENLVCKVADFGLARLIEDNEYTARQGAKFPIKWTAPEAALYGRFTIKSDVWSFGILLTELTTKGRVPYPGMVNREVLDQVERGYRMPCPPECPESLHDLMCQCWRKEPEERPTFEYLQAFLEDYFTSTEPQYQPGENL
Leukocyte tyrosine kinase receptor (Homo sapiens), sequence (P29376 whole entry): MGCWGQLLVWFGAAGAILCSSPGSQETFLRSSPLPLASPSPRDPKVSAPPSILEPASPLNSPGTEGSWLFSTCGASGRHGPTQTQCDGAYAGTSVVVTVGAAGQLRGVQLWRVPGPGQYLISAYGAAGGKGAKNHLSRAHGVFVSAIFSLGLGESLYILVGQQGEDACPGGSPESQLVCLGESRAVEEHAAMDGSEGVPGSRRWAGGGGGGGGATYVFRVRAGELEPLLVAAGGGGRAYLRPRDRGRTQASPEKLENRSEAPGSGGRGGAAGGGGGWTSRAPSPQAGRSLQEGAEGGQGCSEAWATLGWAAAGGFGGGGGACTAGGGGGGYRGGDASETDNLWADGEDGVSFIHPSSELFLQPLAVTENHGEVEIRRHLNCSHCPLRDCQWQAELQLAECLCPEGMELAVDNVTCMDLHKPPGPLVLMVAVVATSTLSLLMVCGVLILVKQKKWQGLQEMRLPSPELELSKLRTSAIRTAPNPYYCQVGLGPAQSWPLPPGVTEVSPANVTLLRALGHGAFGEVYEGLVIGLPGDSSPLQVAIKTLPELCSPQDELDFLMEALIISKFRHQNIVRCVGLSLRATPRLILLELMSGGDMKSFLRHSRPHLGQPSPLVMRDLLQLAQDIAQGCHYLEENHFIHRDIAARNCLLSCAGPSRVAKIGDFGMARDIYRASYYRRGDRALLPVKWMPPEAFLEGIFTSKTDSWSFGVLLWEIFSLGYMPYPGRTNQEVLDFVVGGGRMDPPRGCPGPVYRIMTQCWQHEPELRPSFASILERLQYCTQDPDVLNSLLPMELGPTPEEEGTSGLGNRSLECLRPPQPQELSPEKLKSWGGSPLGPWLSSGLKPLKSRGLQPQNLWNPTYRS
Non-receptor tyrosine-protein kinase TYK2 (Homo sapiens), sequence (P29597 whole entry): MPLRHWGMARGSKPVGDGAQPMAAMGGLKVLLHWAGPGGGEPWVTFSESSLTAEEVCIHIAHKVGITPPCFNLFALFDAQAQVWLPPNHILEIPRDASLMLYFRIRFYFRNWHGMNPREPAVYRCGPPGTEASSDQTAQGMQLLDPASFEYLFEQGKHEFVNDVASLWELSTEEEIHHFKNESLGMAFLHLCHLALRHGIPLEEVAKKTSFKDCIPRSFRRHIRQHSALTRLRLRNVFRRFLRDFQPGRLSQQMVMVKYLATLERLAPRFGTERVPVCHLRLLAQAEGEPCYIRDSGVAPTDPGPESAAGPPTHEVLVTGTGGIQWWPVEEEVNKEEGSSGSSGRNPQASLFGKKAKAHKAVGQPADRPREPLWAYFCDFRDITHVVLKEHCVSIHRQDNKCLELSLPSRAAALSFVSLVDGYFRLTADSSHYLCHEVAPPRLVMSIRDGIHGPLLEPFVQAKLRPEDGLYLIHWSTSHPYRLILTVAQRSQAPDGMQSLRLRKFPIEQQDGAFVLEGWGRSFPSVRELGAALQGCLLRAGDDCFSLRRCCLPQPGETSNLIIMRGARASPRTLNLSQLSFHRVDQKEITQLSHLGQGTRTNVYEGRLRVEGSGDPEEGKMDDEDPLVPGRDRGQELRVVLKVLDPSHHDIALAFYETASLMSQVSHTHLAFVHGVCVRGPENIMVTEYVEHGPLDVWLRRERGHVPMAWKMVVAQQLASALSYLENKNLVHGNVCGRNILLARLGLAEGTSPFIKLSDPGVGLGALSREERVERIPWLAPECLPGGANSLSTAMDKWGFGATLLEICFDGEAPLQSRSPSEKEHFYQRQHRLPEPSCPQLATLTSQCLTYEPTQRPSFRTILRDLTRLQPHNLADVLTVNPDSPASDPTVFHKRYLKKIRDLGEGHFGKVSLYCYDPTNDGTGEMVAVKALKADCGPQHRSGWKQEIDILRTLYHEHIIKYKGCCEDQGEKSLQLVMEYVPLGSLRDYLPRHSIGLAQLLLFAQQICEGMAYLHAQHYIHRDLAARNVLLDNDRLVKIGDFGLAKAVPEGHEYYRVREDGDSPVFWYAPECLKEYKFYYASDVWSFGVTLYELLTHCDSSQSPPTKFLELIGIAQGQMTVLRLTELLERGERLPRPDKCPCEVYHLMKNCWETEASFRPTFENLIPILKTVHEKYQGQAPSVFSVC
Tyrosine-protein kinase JAK1 (Homo sapiens), sequence (P23458 whole entry, canonical isoform): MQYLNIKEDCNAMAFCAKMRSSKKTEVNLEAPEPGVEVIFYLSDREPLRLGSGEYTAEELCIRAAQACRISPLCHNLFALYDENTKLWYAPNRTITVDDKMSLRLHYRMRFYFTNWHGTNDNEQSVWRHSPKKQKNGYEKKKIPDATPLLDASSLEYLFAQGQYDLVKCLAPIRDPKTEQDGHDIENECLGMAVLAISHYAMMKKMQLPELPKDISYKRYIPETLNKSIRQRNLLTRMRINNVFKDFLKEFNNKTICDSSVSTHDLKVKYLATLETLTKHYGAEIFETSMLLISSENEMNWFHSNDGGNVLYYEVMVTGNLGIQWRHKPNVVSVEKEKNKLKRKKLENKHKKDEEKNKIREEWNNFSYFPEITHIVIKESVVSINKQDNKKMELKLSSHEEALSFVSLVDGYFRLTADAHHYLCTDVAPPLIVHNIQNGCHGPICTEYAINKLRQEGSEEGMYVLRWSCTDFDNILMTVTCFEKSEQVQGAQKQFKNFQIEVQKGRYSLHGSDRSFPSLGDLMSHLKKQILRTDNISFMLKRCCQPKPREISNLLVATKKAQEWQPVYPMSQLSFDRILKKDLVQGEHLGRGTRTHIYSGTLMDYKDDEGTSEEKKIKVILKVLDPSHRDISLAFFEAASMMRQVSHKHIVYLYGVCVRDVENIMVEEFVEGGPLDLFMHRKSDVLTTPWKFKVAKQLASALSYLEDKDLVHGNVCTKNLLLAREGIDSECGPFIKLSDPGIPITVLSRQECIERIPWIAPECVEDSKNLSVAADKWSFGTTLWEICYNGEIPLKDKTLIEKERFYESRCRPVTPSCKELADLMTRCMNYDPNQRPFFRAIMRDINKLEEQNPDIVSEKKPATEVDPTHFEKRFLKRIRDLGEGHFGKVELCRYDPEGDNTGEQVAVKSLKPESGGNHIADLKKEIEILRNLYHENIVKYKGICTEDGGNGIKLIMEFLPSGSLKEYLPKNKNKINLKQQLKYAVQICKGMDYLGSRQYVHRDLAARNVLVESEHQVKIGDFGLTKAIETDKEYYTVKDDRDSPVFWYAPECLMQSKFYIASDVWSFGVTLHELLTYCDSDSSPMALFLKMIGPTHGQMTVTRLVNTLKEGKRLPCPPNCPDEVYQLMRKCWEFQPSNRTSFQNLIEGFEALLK
Tyrosine-protein kinase JAK2 (Homo sapiens), O60674 [V617F], sequence (O60674 whole entry V617F, the tested form may be a part): as the sequence (O60674 whole entry, the tested form may be a part) above, with V617F counted along it

O=c1[nH]c(=O)c2scc(Br)c2[nH]1
IC50 (HeLa [1]): > 250 µM
IC50 (CCRF-CEM): > 250 µM
IC50 (L1210 [2]): > 250 µM

O=c1[nH]c(=O)c2scc([C@H]3C[C@H](O)[C@@H](CO)O3)c2[nH]1
IC50 (HeLa [1]): > 250 µM
IC50 (CCRF-CEM): > 250 µM
IC50 (L1210 [2]): > 250 µM

O=c1[nH]c(=O)c2sccc2[nH]1
IC50 (HeLa [1]): > 250 µM
IC50 (CCRF-CEM): > 250 µM
IC50 (L1210 [2]): > 250 µM

Clc1nc(-n2cncn2)c2sccc2n1
IC50 (HeLa [1]): > 250 µM
IC50 (CCRF-CEM): > 250 µM
IC50 (L1210 [2]): > 250 µM

Clc1nc(Cl)c2sccc2n1
inhibition at 100 µM (Bacillus spizizenii [3]): 43%
inhibition [4]: < 40%
inhibition (Escherichia coli [5]): inactive
inhibition [6]: < 40%
inhibition [7]: < 40%
inhibition [8]: < 40%
IC50 (HeLa [1]): 3.9 µM
inhibition [9]: < 40%
inhibition [10]: < 40%
inhibition [11]: < 40%
inhibition [12]: < 40%
inhibition [13]: < 40%
MIC99 (Vero): 20 µM (≈ 4.1 µg/mL)
inhibition [14]: < 40%
inhibition [15]: < 40%
inhibition (Enterococcus faecalis [16]): inactive
inhibition [17]: < 40%
IC50 (L1210 [18]): 0.32 µM
MIC99 (HeLa [19]): 4 µM (≈ 0.82 µg/mL)
inhibition [20]: < 40%
Activity (L1210 [21]): 56%
inhibition [22]: < 40%
MIC99 (HEL): 100 µM (≈ 20.5 µg/mL)
IC50 (CCRF-CEM): 5.2 µM
inhibition [23]: < 40%
inhibition [24]: < 40%
inhibition (Pseudomonas aeruginosa [25]): inactive
inhibition [26]: < 40%
inhibition [27]: < 40%
MIC95 (Cryptococcus neoformans [28]): 34.6 µM (≈ 7.1 µg/mL)
inhibition (Staphylococcus aureus [29]): inactive
inhibition [30]: < 40%
inhibition [31]: < 40%
Activity (L1210 [32]): 37.9%
IC50 (L1210 [2]): 0.67 µM
Activity (L1210 [33]): inactive
MIC95 (Candida albicans [34]): 23.4 µM (≈ 4.8 µg/mL)
MIC95 (Cryptococcus neoformans [35]): 16.6 µM (≈ 3.4 µg/mL)
Activity (L1210 [36]): 1.29%
Activity (L1210 [37]): 4.72%

Clc1nc(-n2cncn2)c2scc(Br)c2n1
IC50 (HeLa [1]): 116 µM
IC50 (CCRF-CEM): 84 µM
IC50 (L1210 [2]): 157 µM

Clc1ncc2sccc2n1
inhibition (Bacillus spizizenii [3]): inactive
inhibition (Escherichia coli [5]): inactive
IC50 (HeLa [1]): > 250 µM
inhibition (Cryptococcus neoformans [38]): inactive
inhibition (Cryptococcus neoformans [39]): inactive
inhibition (Cryptococcus neoformans [40]): inactive
IC50 (CCRF-CEM): > 250 µM
inhibition (Staphylococcus aureus [29]): inactive
inhibition (Cryptococcus neoformans [41]): inactive
IC50 (L1210 [2]): > 250 µM
inhibition (Candida albicans [42]): inactive

Nc1nc(Cl)nc2ccsc12
IC50 (HeLa [1]): > 250 µM
IC50 (CCRF-CEM): > 250 µM
IC50 (L1210 [2]): > 250 µM

COc1nc(OC)c2scc(Br)c2n1
IC50 (HeLa [1]): 203 µM
IC50 (CCRF-CEM): ≥ 250 µM
IC50 (L1210 [2]): > 250 µM

Clc1nc(Cl)c2[nH]ccc2n1
inhibition (Bacillus spizizenii [3]): inactive
inhibition (Escherichia coli [5]): inactive
IC50 (HeLa [1]): 19 µM
inhibition (Cryptococcus neoformans [38]): inactive
MIC99 (Vero): >= 20 uM
inhibition (Cryptococcus neoformans [39]): inactive
inhibition (Cryptococcus neoformans [40]): inactive
MIC99 (HeLa [19]): 20 µM (≈ 3.76 µg/mL)
MIC99 (HEL): 20 µM (≈ 3.76 µg/mL)
IC50 (CCRF-CEM): 25 µM
inhibition (Staphylococcus aureus [29]): inactive
inhibition (Cryptococcus neoformans [41]): inactive
IC50 (L1210 [2]): 6.8 µM
inhibition (Candida albicans [42]): inactive

CN(C)[C@@H]1C(O)=C(C(N)=O)C(=O)[C@@]2(O)C(O)=C3C(=O)c4c(O)cccc4[C@@](C)(O)[C@H]3C[C@@H]12 [TETRACYCLINE]
MIC95 (Staphylococcus aureus [43]): 10 µg/mL (≈ 22.5 µM)
MIC95 (Escherichia coli [44]): 10 µg/mL (≈ 22.5 µM)
MIC95 (Enterococcus faecalis [45]): 10 µg/mL (≈ 22.5 µM)
MIC95 (Bacillus spizizenii [46]): 10 µg/mL (≈ 22.5 µM)
MIC95 (Pseudomonas aeruginosa [47]): 50 µg/mL (≈ 113 µM)

O=c1[nH]cc(F)c(=O)[nH]1 [FLUOROURACIL]
IC50 (L1210 [2]): 0.33 µM

COc1nc(OC)c2scc([C@H]3C[C@H](O)[C@@H](CO)O3)c2n1
IC50 (HeLa [1]): > 250 µM
IC50 (CCRF-CEM): > 250 µM
IC50 (L1210 [2]): > 250 µM

Nc1nc(Cl)nc2c(Br)csc12
IC50 (HeLa [1]): 96 µM
IC50 (CCRF-CEM): 109 µM
IC50 (L1210 [2]): 150 µM

COc1nc(OC)c2scc([C@H]3CC(=O)[C@@H](CO)O3)c2n1
IC50 (HeLa [1]): > 250 µM
IC50 (CCRF-CEM): > 250 µM
IC50 (L1210 [2]): > 250 µM

COc1nc(OC)c2scc([C@H]3C[C@H](OC(C)=O)[C@@H](COC(C)=O)O3)c2n1
IC50 (HeLa [1]): > 250 µM
IC50 (CCRF-CEM): > 250 µM
IC50 (L1210 [2]): > 250 µM
